In patent US12428406B2 (PMV Pharmaceuticals, Inc., priority 2019, dated 2025):

These compounds were tested against T1, p53 Y220C (Homo sapiens, UniProt P04637, Y220C) (assay: In vitro DNA binding activity assay (HTRF / TR-FRET): stabilization of p53 Y220C and increase of its DNA binding activity). Conditions: recombinant His-tagged p53 Y220C DNA binding domain (aa 94-312), biotin-labeled consensus DNA, incubated at 27° C. or 29° C. for 60 min.
T1 construct: The recombinant protein was a truncation mutant containing only amino acids 94-312 of p53; made in house; host or cells: E. coli
T1 sequence (P04637 94-312, change not shown): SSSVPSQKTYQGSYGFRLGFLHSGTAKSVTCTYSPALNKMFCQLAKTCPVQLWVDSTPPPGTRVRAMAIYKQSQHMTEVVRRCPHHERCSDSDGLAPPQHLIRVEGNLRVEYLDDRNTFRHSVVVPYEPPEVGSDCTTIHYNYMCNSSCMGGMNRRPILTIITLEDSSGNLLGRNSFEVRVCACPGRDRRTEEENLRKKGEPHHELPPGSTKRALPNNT
Format: biochemical
How it was run: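 Test compounds, diluted 3-fold in DMSO from 4.5 mM stocks, were incubated with bacterially expressed His-tagged p53 Y220C at room temperature for 15 min, and after a further step for 20 min. DNA binding was detected by time-resolved FRET between APC and europium labels. SC150 marks the concentration increasing binding by 50%.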

SC150 (concentration of the compound required to increase the DNA binding activity by 50%) | Structure (SMILES)
+ (+ = 0 μM ≤ SC150 < 0.05 μM) | COc1cc(S(=O)(=O)N(C)C)ccc1NCC#Cc1cc2c(N[C@H]3CC[C@H](N4CC5(COC5)C4)CC3)cccc2n1CC(F)(F)F [Compound 267A, 4-((3-(4-(((1R,4R)-4-(2-oxa-6-azaspiro[3.3]heptan-6-yl)cyclo-hexyl)amino)-1-(2,2,2-trifluoroethyl)-1H-indol-2-yl)prop-2-yn-1-yl)amino)-3-methoxy-N,N-dimethylbenzene-sulfonamide]
+ (+ = 0 μM ≤ SC150 < 0.05 μM) | CS(=O)(=O)c1ccc(NCC#Cc2cc3c(N[C@H]4CC[C@@H](N5CC6(COC6)C5)CC4)cccc3n2CC(F)(F)F)c(OCC(F)(F)F)c1 [Compound 232A, 2-(3-{[4-methane-sulfonyl-2-(2,2,2-trifluoro-ethoxy)phenyl]amino}prop-1-yn-1-yl)-N-[(1S,4S)-4-{2-oxa-6-azaspiro[3.3]heptan-6-yl}cyclohexyl]-1-(2,2,2-trifluoroethyl)-1H-indol-4-amine]
+ (+ = 0 μM ≤ SC150 < 0.05 μM) | COc1cc(C(N)=O)ccc1NCC#Cc1cc2c(N[C@H]3CC[C@@H](N4CC5(COC5)C4)CC3)cccc2n1CC(F)(F)F [Compound 213A, 3-methoxy-4-{[3-(4-{[(1S,4S)-4-{2-oxa-6-azaspiro[3.3]heptan-6-yl}cyclohexyl]amino}-1-(2,2,2-trifluoroethyl)-1H-indol-2-yl)prop-2-yn-1-yl]amino}benzamide]
+ (+ = 0 μM ≤ SC150 < 0.05 μM) | COc1cc(C(=O)NCCS(C)(=O)=O)ccc1NCC#Cc1cc2c(N[C@@H]3CCN(C)C[C@@H]3F)cccc2n1CC(F)(F)F [Compound 969A, 4-{[3-(4-{[(3S,4R)-3-fluoro-1-methylpiperidin-4-yl]amino}-1-(2,2,2-trifluoroethyl)-1H-indol-2-yl)prop-2-yn-1-yl]amino}-N-(2-methanesulfonylethyl)-3-methoxybenzamide]
+ (+ = 0 μM ≤ SC150 < 0.05 μM) | CNc1cc(S(C)(=O)=O)ccc1OCC#Cc1cc2c(NC3CCC(N4CC5(COC5)C4)CC3)cccc2n1CC(F)(F)F [Compound 245A, 2-{3-[4-methanesulfonyl-2-(methylamino)phenoxy]prop-1-yn-1-yl}-N-[(1R,4R)-4-{2-oxa-6-azaspiro[3.3]heptan-6-yl}cyclohexyl]-1-(2,2,2-trifluoroethyl)-1H-indol-4-amine]
+ (+ = 0 μM ≤ SC150 < 0.05 μM) | COc1cc(S(C)(=O)=O)ccc1NCC#Cc1cc2c(NC3CCCN(C)CC3)cccc2n1CC(F)(F)F (stereo not shown) [Compound 988A, 2-{3-[(4-methanesulfonyl-2-methoxyphenyl)amino]prop-1-yn-1-yl}-N-(1-methylazepan-4-yl)-1-(2,2,2-trifluoroethyl)-1H-indol-4-amine]
++++ (++++ = 0.2 μM ≤ SC150 < 1 μM) | COc1cc(S(N)(=O)=O)ccc1NCC#Cc1cc2c(NC3CCOCC3)c(OC)ccc2n1CC(F)(F)F [Compound 1010A, 3-methoxy-4-[(3-{5-methoxy-4-[(oxan-4-yl)amino]-1-(2,2,2-trifluoroethyl)-1H-indol-2-yl}prop-2-yn-1-yl)amino]benzene-1-sulfonamide]
+ (+ = 0 μM ≤ SC150 < 0.05 μM) | COCCOc1cc(S(C)(=O)=O)ccc1NCC#Cc1cc2c(N[C@H]3CC[C@@H](N4CC5(COC5)C4)CC3)cccc2n1CC(F)(F)F [Compound 221A, 2-(3-{[4-methane-sulfonyl-2-(2-methoxyethoxy)phenyl]amino}prop-1-yn-1-yl)-N-[(1S,4S)-4-{2-oxa-6-azaspiro[3.3]heptan-6-yl}cyclohexyl]-1-(2,2,2-trifluoroethyl)-1H-indol-4-amine]
+ (+ = 0 μM ≤ SC150 < 0.05 μM) | COc1cc(S(C)(=O)=O)ccc1NCC#Cc1cc2c(N[C@H]3CC[C@H](N4CCS(=O)(=O)CC4)CC3)cccc2n1CC(F)(F)F [Compound 362A, 4-[(1R,4R)-4-[(2-{3-[(4-methanesulfonyl-2-methoxyphenyl)amino]prop-1-yn-1-yl}-1-(2,2,2-trifluoroethyl)-1H-indol-4-yl)amino]cyclohexyl]-1λ^6-thiomorpholine-1,1-dione]
+ (+ = 0 μM ≤ SC150 < 0.05 μM) | CCN1CC[C@H](Nc2cccc3c2cc(C#CCNc2ccc(C(=O)NC)cc2OC)n3CC(F)(F)F)[C@H](F)C1 [Compound 1075A, 4-{[3-(4-{[(3R,4S)-1-ethyl-3-fluoropiperidin-4-yl]amino}-1-(2,2,2-trifluoroethyl)-1H-indol-2-yl)prop-2-yn-1-yl]amino}-3-methoxy-N-methvlbenzamide]
+ (+ = 0 μM ≤ SC150 < 0.05 μM) | COc1cc(S(C)(=O)=O)ccc1NCC#Cc1cc2c(N[C@@H]3CCCNC3)cccc2n1CC(F)(F)F [Compound 463A, 2-{3-[(4-methanesulfonyl-2-methoxyphenyl)amino]prop-1-yn-1-yl}-N-[(3R)-piperidin-3-yl]-1-(2,2,2-trifluoroethyl)-1H-indol-4-amine]
+ (+ = 0 μM ≤ SC150 < 0.05 μM) | CNC(=O)c1ccc(NCC#Cc2cc3c(NC4CCS(=O)(=O)CC4)cccc3n2CC(F)(F)F)c(OC)c1 [Compound 1049A, 4-[(3-{4-[(1,1-dioxo-1λ^6-thian-4-yl)amino]-1-(2,2,2-trifluoroethyl)-1H-indol-2-yl}prop-2-yn-1-yl)amino]-3-methoxy-N-methylbenzamide]
+ (+ = 0 μM ≤ SC150 < 0.05 μM) | COc1cc(S(C)(=O)=O)ccc1NCC#Cc1cc2c(N[C@H]3CCOC[C@H]3F)cccc2n1CC(F)(F)F (racemic) [Compound 1022A, rac-N-[(3R,4R)-3-fluorooxan-4-yl]-2-{3-[(4-methanesulfonyl-2-methoxyphenyl)amino]prop-1-yn-1-yl}-1-(2,2,2-trifluoroethyl)-1H-indol-4-amine]
+ (+ = 0 μM ≤ SC150 < 0.05 μM) | COc1cc(S(=O)(=O)N2CCOCC2)ccc1NCC#Cc1cc2c(NC3CCN(C(C)=O)CC3)cccc2n1CC(F)(F)F [Compound 758A, 1-(4-{1[2-(3-{1[2-methoxy-4-(morpholine-4-sulfonyl)phenyl]amino}prop-1-yn-1-yl)-1-(2,2,2-trifluoroethyl)-1H-indol-4-yl]amino}piperidin-1-yl)ethan-1-one]
+ (+ = 0 μM ≤ SC150 < 0.05 μM) | COc1cc(S(C)(=O)=O)ccc1NCC#Cc1cc2c(N[C@@H]3CCN(C(=O)CN(C)C)C[C@@H]3F)cccc2n1CC(F)(F)F [Compound 855A, 2-(dimethylamino)-1-[(3S,4R)-3-fluoro-4-[(2-{3-[(4-methanesulfonyl-2-methoxyphenyl)amino]prop-1-yn-1-yl}-1-(2,2,2-trifluoroethyl)-1H-indol-4-yl)amino]piperidin-1-yl]ethan-1-one]
+ (+ = 0 μM ≤ SC150 < 0.05 μM) | COc1cc(S(N)(=O)=O)ccc1NCC#Cc1cc2c(NC3CCN(C(=O)C(C)C)CC3)cccc2n1CC(F)(F)F [Compound 753A]
++++ (++++ = 0.2 μM ≤ SC150 < 1 μM) | COc1cc(S(C)(=O)=O)ccc1NCC#Cc1cc2c(NC3CCOCC3)c(OC)ccc2n1CC(F)(F)F [Compound 1012A, 2-{3-[(4-methanesulfonyl-2-methoxyphenyl)amino]prop-1-yn-1-yl}-5-methoxy-N-(oxan-4-yl)-1-(2,2,2-trifluoroethyl)-1H-indol-4-amine]
+ (+ = 0 μM ≤ SC150 < 0.05 μM) | COc1cc(C(N)=O)ccc1NCC#Cc1cc2c(N[C@@H]3CCO[C@@H](C)C3)cccc2n1CC(F)(F)F [Compound 1020A, 3-methoxy-4-{[3-(4-{[(2S,4R)-2-methyloxan-4-yl]amino}-1-(2,2,2-trifluoroethyl)-1H-indol-2-yl)prop-2-yn-1-yl]amino}benzamide]
+ (+ = 0 μM ≤ SC150 < 0.05 μM) | COc1cc(S(N)(=O)=O)ccc1NCC#Cc1cc2c(N[C@@H]3CCN(C)C[C@@H]3F)cccc2n1CC(F)(F)F [Compound 791A, 4-{[3-(4-{[(3S,4R)-3-fluoro-1-methylpiperidin-4-yl]amino}-1-(2,2,2-trifluoroethyl)-1H-indol-2-yl)prop-2-yn-1-yl]amino}-3-methoxybenzene-1-sulfonamide]
+ (+ = 0 μM ≤ SC150 < 0.05 μM) | CNC(=O)c1ccc(NCC#Cc2cc3c(NC4CCN(C[C@H](CO)OC)CC4)cccc3n2CC(F)(F)F)c(OC)c1 [Compound 649A, 4-({3-[4-({1-[(2R)-3-hydroxy-2-methoxypropyl]piperidin-4-yl}amino)-1-(2,2,2-trifluoroethyl)-1H-indol-2-yl]prop-2-yn-1-yl}amino)-3-methoxy-N-methylbenzamide]
+ (+ = 0 μM ≤ SC150 < 0.05 μM) | CS(=O)(=O)c1ccc(NCC#Cc2cc3c(N[C@H]4CC[C@H](N5CC6(COC6)C5)CC4)cccc3n2CC(F)(F)F)c(OCCO)c1 [Compound 225A, 2-(5-methanesulfonyl-2-{[3-(4-{[(1R,4R)-4-{2-oxa-6-azaspiro[3.3]heptan-6-yl}cyclo-hexyl]amino}-1-(2,2,2-trifluoroethyl)-1H-indol-2-yl)prop-2-yn-1-yl]amino}phenoxy)ethan-1-ol]

Structure (SMILES) | SC150 (concentration of the compound required to increase the DNA binding activity by 50%)
COc1cc(S(N)(=O)=O)ccc1NCC#Cc1cc2c(N[C@H]3CC[C@@H](N4CC5CC(C4)O5)CC3)cccc2n1CC(F)(F)F [Compound 401A, 3-methoxy-4-{[3-(4-{[(1S,4S)-4-{6-oxa-3-azabicyclo[3.1.1]heptan-3-yl}cyclohexyl]amino}-1-(2,2,2-trifluoroethyl)-1H-indol-2-yl)prop-2-yn-1-yl]amino}benzene-1-sulfonamide] | ++ (++ = 0.05 μM ≤ SC150 < 0.1 μM)
